target: T1, glucocorticoid receptor (Homo sapiens, UniProt P04150); test: Agonistic mode of action on the glucocorticoid receptor (CHO-Gal4/GR luciferase reporter cell line); format: cell-based; details: range class observed in the agonistic assay or the antagonistic assay (CHO-Gal4/GR reporter cells); table does not say which mode applies per example
T1 construct: expressed in transfected cells
T1 sequence (P04150 524-758 limits assumed): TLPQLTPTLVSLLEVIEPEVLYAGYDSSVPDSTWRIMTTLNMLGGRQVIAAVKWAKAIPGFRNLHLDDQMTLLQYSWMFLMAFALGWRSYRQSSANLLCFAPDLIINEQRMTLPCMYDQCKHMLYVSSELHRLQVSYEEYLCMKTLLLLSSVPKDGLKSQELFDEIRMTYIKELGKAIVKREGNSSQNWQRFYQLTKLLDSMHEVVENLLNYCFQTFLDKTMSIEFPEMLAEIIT
From the text: Potential selective glucocorticoid receptor modulators of this intervention can be tested for modulation of the activity of the glucocorticoid receptor using cell-based assays. These assays involve a Chinese hamster ovary (CHO) cell line which contains fragments of the glucocorticoid receptor as well as fusion proteins. The glucocorticoid receptor fragments used are capable of binding the ligand (e.g. beclomethasone) to identify molecules that compete for binding with glucocorticoid receptor ligands. In more detail, the glucocorticoid receptor ligand binding domain is 25 fused to the DNA binding domain (DBD) of the transcriptionfactor GAL4 (GAL4 DBD-GR) and is stably integrated into a CHO cell line containing a GAL4-UAS-Luciferase reporter construct. […] After cell lysis the luminescence that is produced by luciferase after addition of the substrate is detected and EC50 or IC50 values can be calculated. Engagement of molecules which induce gene expression via glucocortocoid receptor binding to the DNA leads to expression of the luciferase gene under the control of the fusion protein GAL4 DBD-GR and therefore to a dose-dependent increase of the luminescence signal. Binding of molecules which repress beclomethasone-induced gene expression of the luciferase gene under the control of the fusion protein GAL4 DBD-GR leads to a dose-dependent reduction of the luminescence signal.
Biological Assays Agonistic Mode of Action on the Glucocorticoid Receptor
The reporter cell line CHO-Gal4/GR consisted of a Chinese hamster ovary (CHO) cell line (Leibniz Institute DSMZ—German Collection of Microorganisms and Cell CuItures GmbH: ACC-110) containing a firefly luciferase gene under the control of the GR ligand binding domain fused to the DNA binding domain (DBD) of GAL4 (GAL4 DBD-GR) stably integrated into CHO cells. This cell line was established by stable transfection of CHO cells with a GAL4-UAS-Luciferase reporter construct. In a subsequent step the ligand binding domain of the GR cloned into pIRES2-EGFP-GAL4 containing the DNA binding domain of GAL4 from pFA-AT2 was transfected. This fusion construct activated firefly luciferase expression under the control of a multimerized GAL4 upstream activation sequence (UAS). The signal of the emitted luminescence was recorded by the FLIPR^TETRA. This allowed for specific detection of ligand-induced activation of the GR and therefore for the identification of compounds with agonistic properties. The GAL4/UAS reporter was premixed with a vector that constitutively expressed Renilla luciferase, which served as an internal positive control for transfection efficiency.
The complete culture medium for the assay was: • DMEM F-12 (1:1) MIXTURE (LONZA cat. N°: BE04-687F/U1) 500 mL • 5 mL of 100 mM Sodium Pyruvate (LONZA cat. N°: BE12-115E) • 25 mL of 7.5% Sodium Bicarbonate (LONZA cat. N° BE17-613E) • 6.5 mL of 1 M Hepes (LONZA cat. N°: BE17-737E) • 5 mL of 100× Penicillin/Streptomycin (LONZA cat. N° DE17-602E) • 50 mL of Fetal Bovine Serum (Euroclone cat. N° ECS 0180L) • 0.25 mL of 10 mg/mL Puromycin (InvivoGen cat.: ant-pr-1) • 0.5 mL of 100 mg/mL Zeocin (InvivoGen cat.: ant-zn-1)
Cryo-preserved CHO-Gal4/GR cells were suspended in complete medium and 5000 cells/25 μl/well were seeded into the wells of 384-well polystyrene assay plates (Thermo Scientific, cat. #4332) and cultured at 37° C., 5% CO2 and 95% humidity. After 24 hours growth medium was carefully removed and replaced by 30 μl Opti-MEM (GIBCO, cat. #31985062) as assay buffer. To test the compounds an 8-point half-log compound dilution curve was generated in 100% DMSO starting from a 2 mM stock and compounds were then diluted 1:50 in Opti-MEM. 10 μl of compounds were then added to the wells containing 30 μl Opti-MEM resulting in a final assay concentration range from 10 μM to 0.003 μM in 0.5% DMSO. Compounds were tested at 8 concentrations in quadruplicate data points.

Compound | IC50 or EC50 (agonist or antagonist mode not specified) [nM]
COCCn1c(C(F)(F)F)cc2c(-c3c(F)cc4c(c3F)-n3c(C)nnc3C(C)(C)N4)cccc21 [Example 289, 7,9-Difluoro-8-[1-(2-methoxy-ethyl)-2-(trifluoromethyl)-1H-indol-4-yl]-1,4,4-trimethyl-5H-[1,2,4]triazolo[4,3-a]quinoxaline] | 1000 to 15000
COc1cc2c(c(F)c1-c1cccc3[nH]c(C(F)(F)F)cc13)-n1c(C)nnc1C(C)(C)N2 [Example 257, 9-Fluoro-7-methoxy-1,4,4-trimethyl-8-[2-(trifluoromethyl)-1H-indol-4-yl]-5H-[1,2,4]triazolo[4,3-a]quinoxaline] | 100 to 1000
CCn1cc2c(-c3c(F)cc4c(c3F)-n3c(C)nnc3C(C)(C)N4)cccc2n1 [Example 237, 8-(2-Ethyl-2H-indazol-4-yl)-7,9-difluoro-1,4,4-trimethyl-5H-[1,2,4]triazolo[4,3-a]quinoxaline] | 1000 to 15000
CC#CCc1nnc2n1-c1c(cc(F)c(-c3cc(F)cc4c(C)c[nH]c34)c1F)NC2(C)C [Example 69, 1-(but-2-yn-1-yl)-7,9-difluoro-8-(5-fluoro-3-methyl-1H-indol-7-yl)-4,4-dimethyl-4,5-dihydro-[1,2,4]triazolo[4,3-a]quinoxaline] | < 100
CCc1nnc2n1-c1c(cc(F)c(-c3cccc4c3cnn4C3CC3)c1C)NC2(C)C [Example 242, 8-(1-Cyclopropyl-1H-indazol-4-yl)-1-ethyl-7-fluoro-4,4,9-trimethyl-5H-[1,2,4]triazolo[4,3-a]quinoxaline] | 1000 to 15000
Cc1cc2c(c(F)c1-c1cccc3c1ccn3S(C)(=O)=O)-n1c(C)nnc1C(C)(C)N2 [Example 321, 9-Fluoro-1,4,4,7-tetramethyl-8-(1-methylsulfonyl-1H-indol-4-yl)-5H-[1,2,4]triazolo[4,3-a]quinoxaline] | 1000 to 15000
COc1c(-c2cccc3c(C)c[nH]c23)c(F)cc2c1-n1c(C)nnc1C(C)(C)N2 [Example 270, 7-Fluoro-9-methoxy-1,4,4-trimethyl-8-(3-methyl-1H-indol-7-yl)-5H-[1,2,4]triazolo[4,3-a]quinoxaline] | 100 to 1000
COC(=O)CCn1ccc2c(-c3c(F)cc4c(c3F)-n3c(C)nnc3C(C)(C)N4)cccc21 [Example 219, 3-[4-(7,9-Difluoro-1,4,4-trimethyl-5H-[1,2,4]triazolo[4,3-a]quinoxalin-8-yl)-1H-indol-1-yl]-propionic acid methyl ester] | 1000 to 15000
Cc1nnc2n1-c1c(cc(F)c(-c3cccc4c3ccn4CC3CC3)c1F)NC2(C)C [Example 202, 8-[1-(Cyclopropyl-methyl)-1H-indol-4-yl]-7,9-difluoro-1,4,4-trimethyl-5H-[1,2,4]triazolo[4,3-a]quinoxaline] | < 100
COCCn1ncc2c(-c3c(F)cc4c(c3F)-n3c(C)nnc3C(C)(C)N4)cccc21 [Example 233, 7,9-Difluoro-8-[1-(2-methoxy-ethyl)-1H-indazol-4-yl]-1,4,4-trimethyl-5H-[1,2,4]triazolo[4,3-a]quinoxaline] | 100 to 1000
COc1c(-c2cccc3c2ccn3C(=O)OC(C)(C)C)c(F)cc2c1-n1c(C)nnc1C(C)(C)N2 [Example 260, 4-(7-Fluoro-9-methoxy-1,4,4-trimethyl-5H-[1,2,4]triazolo[4,3-a]quinoxalin-8-yl)-1H-indole-1-carboxylic acid tert-butyl ester] | 100 to 1000
CCc1nnc2n1-c1c(cc(F)c(-c3cc(F)cc4c3ccn4CC3CC3)c1C)NC2(C)C [Example 35, 8-(1-(cyclopropylmethyl)-6-fluoro-1H-indol-4-yl)-1-ethyl-7-fluoro-4,4,9-trimethyl-4,5-dihydro-[1,2,4]triazolo[4,3-a]quinoxaline] | 100 to 1000
Cc1nnc2n1-c1c(cc(F)c(-c3cc(F)cc4c3cnn4S(C)(=O)=O)c1F)NC2(C)C [Example 276, 7,9-Difluoro-8-(6-fluoro-1-methylsulfonyl-1H-indazol-4-yl)-1,4,4-trimethyl-5H-[1,2,4]triazolo [4,3-a]quinoxaline] | 100 to 1000
CC(=O)n1ccc2c(-c3c(F)cc4c(c3F)-n3c(C)nnc3C(C)(C)N4)cccc21 [Example 20, 1-(4-(7,9-difluoro-1,4,4-trimethyl-4,5-dihydro-[1,2,4]triazolo[4,3-a]quinoxalin-8-yl)-1H-indol-1-yl)ethanone] | 100 to 1000

Other lines, results leading:

IC50 or EC50 (agonist or antagonist mode not specified) [nM] | Compound
< 100 | COc1cc2c(c(C(F)(F)F)c1-c1cc(F)cc3c(C4CC4)c[nH]c13)-n1c(C)nnc1C(C)(C)N2 [Example 482, 8-(3-Cyclopropyl-5-fluoro-1H-indol-7-yl)-7-methoxy-1,4,4-trimethyl-9-(trifluoromethyl)-5H-[1,2,4]triazolo[4,3-a]quinoxaline]
1000 to 15000 | Cc1nnc2n1-c1c(cc(C(F)F)c(-c3cc(F)cc4c3ccn4CCO)c1F)NC2(C)C [Example 385, 2-[4-[7-(Difluoro-methyl)-9-fluoro-1,4,4-trimethyl-5H-[1,2,4]triazolo [4,3-a]quinoxalin-8-yl]-6-fluoro-1H-indol-1-yl]-ethanol]
1000 to 15000 | Cc1ccc(-c2c(F)cc3c(c2C(F)F)-n2c(C)nnc2C(C)(C)N3)c2ccn(S(C)(=O)=O)c12 [Example 512, 9-(Difluoro-methyl)-7-fluoro-1,4,4-trimethyl-8-(7-methyl-1-methylsulfonyl-1H-indol-4-yl)-5H-[1,2,4]triazolo[4,3-a]quinoxaline]
100 to 1000 | COc1c(-c2cccc3[nH]ncc23)c(F)cc2c1-n1c(C)nnc1C(C)(C)N2 [Example 490, 7-Fluoro-8-(1H-indazol-4-yl)-9-methoxy-1,4,4-trimethyl-5H-[1,2,4]triazolo[4,3-a]quinoxaline]
100 to 1000 | Cc1nnc2n1-c1c(cc(F)c(-c3cccc4c3ccn4S(=O)(=O)C3CC3)c1C(F)F)NC2(C)C [Example 401, 8-[1-(Cyclopropylsulfonyl)-1H-indol-4-yl]-9-(difluoro-methyl)-7-fluoro-1,4,4-trimethyl-5H-[1,2,4]triazolo [4,3-a]quinoxaline]
100 to 1000 | Cc1nnc2n1-c1c(cc(F)c(-c3cc(F)cc4cc[nH]c34)c1C(F)(F)F)NC2(C)C [Example 516, 7-Fluoro-8-(5-fluoro-1H-indol-7-yl)-1,4,4-trimethyl-9-(trifluoro-methyl)-5H-[1,2,4]triazolo[4,3-a] quinoxaline]
100 to 1000 | Cc1nnc2n1-c1c(cc(F)c(-c3cccc4c3ccn4S(=O)(=O)CC3CC3)c1C(F)F)NC2(C)C [Example 502, 8-[1-(Cyclopropyl-methylsulfonyl)-1H-indol-4-yl]-9-(difluoro-methyl)-7-fluoro-1,4,4-trimethyl-5H-[1,2,4]triazolo[4,3-a]quinoxaline]
